Data reported in PMC5642477, “Phosphodiesterase 10A is overexpressed in lung tumor cells and inhibitors selectively suppress growth by blocking β-catenin and MAPK signaling” (Oncotarget, 2017).
pEC50, pIC50: −log10 of the molar value. Like-named read-outs stand apart in the source and are kept apart here.

Assays:
[1] = tested on: β-catenin in H1299 cells; assay: Western blotting, β-catenin phosphorylation; type: cell-based, human
Description: (§1) Whole cell extraction was performed according to a previously described method using cell lysing buffer (Cell Signaling) supplemented with 10 mmol/L NaF for protein phosphorylation studies. Cell lysates were separated by 4-12% gradient, 7% or 10% pre-casting PAGE (Novex/Invitrogen) followed by electrophoretic transfer to a nitrocellulose membrane. Western blotting procedures were performed using Chemiluminescence Reagent (Pierce) and visualized using Chemi Doc Imaging System (BioRad).

[2] = tested on: cleaved PARP and caspase 3 in H1299 cells; assay: Western blotting, cleaved PARP and caspase 3 (apoptosis); type: cell-based, human
Description: as §1

[3] = tested on: PDE6A/B; assay: IMAP fluorescence polarization PDE assay, recombinant PDE isozymes; type: biochemical; set-up: key: Inactive: >100 µmol/L shows no inhibition; conditions: substrate cGMP
Description: (§2) The enzymatic activity of recombinant PDE or PDE activities in cell lysates were measured using the IMAP fluorescence polarization (FP) PDE assay (Molecular Devices) as previously described. PDE10 inhibitors and DMSO as the vehicle were added to assay buffer 10 minutes before the incubation with the enzyme reaction. Fluorescence polarization values were measured using Synergy H4 Hybrid Reader (BioTek).

[4] = target: PDE7A (Homo sapiens, UniProt Q13946); assay: as above; type: biochemical; set-up: key: Inactive: >100 µmol/L shows no inhibition; conditions: substrate cAMP
Description: as §2

[5] = target: PDE8A (Homo sapiens, UniProt O60658); assay: as above; type: biochemical; set-up: key: Inactive: >100 µmol/L shows no inhibition; conditions: substrate cAMP
Description: as §2

[6] = target: PDE9A (Homo sapiens, UniProt O76083); assay: as above; type: biochemical; set-up: key: Inactive: >100 µmol/L shows no inhibition; conditions: substrate cGMP
Description: as §2

[7] = target: PDE10A (Homo sapiens, UniProt Q9Y233); assay: as above; type: biochemical
Description: as §2

[8] = target: PDE11A (Homo sapiens, UniProt Q9HCR9); assay: as above; type: biochemical
Description: as §2

[9] = target: PDE1A (Homo sapiens, UniProt P54750); assay: as above; type: biochemical
Description: as §2

[10] = target: PDE2A (Homo sapiens, UniProt O00408); assay: as above; type: biochemical
Description: as §2

[11] = target: PDE3A (Homo sapiens, UniProt Q14432); assay: as above; type: biochemical
Description: as §2

[12] = target: PDE4B (Homo sapiens, UniProt Q07343); assay: as above; type: biochemical; conditions: substrate cAMP; read-out: IC50 of PQ10 cAMP
Description: as §2

[13] = target: PDE5A (Homo sapiens, UniProt O76074); assay: as above; type: biochemical; conditions: substrate cGMP; read-out: IC50 of PQ10 cGMP
Description: as §2

[14] = tested on: A549 cells; assay: Growth assay (Cell Titer Glo); type: cell-based; conditions: Homo sapiens; A549, 72 hours, 5% serum; read-out: Growth inhibition IC50
Description: (§3) Cells were plated in half area 96-well microtiter plates (Corning) at a density of 3, 000 cells per well. For drug treatment, cells were treated with compound or DMSO as vehicle (final concentration at 0.2%). For siRNA assays, cells were transfected with siRNAs under the same condition as described above. The effect of treatment on cell growth was measured using the Cell Titer Glo (CTG) assay (Promega) as specified by the measurement of viable cells based on ATP content after 72 hours standard culture. All growth assay involving NSCLCs and NHAECs were performed in the presence of 5% serum.
(§4) Drug effects on cell growth and IC50 values were determined as described previously. All experiments were repeated a minimum of three times to determine the reproducibility of the results. All error bars represent standard error of the mean (SEM). Statistical analysis was performed using Student’s t test or other as indicated. A P value of <0.05 was considered statistically significant.

[15] = tested on: H1975 cells; assay: Growth assay (Cell Titer Glo); type: cell-based; conditions: Homo sapiens, NCI-H1975; H1975, 72 hours, 5% serum; read-out: Growth inhibition IC50
Description: as §3, §4

[16] = tested on: H460 cells; assay: Growth assay (Cell Titer Glo); type: cell-based; conditions: Homo sapiens, NCI-H460; H460, 72 hours, 5% serum; read-out: Growth inhibition IC50
Description: as §3, §4

[17] = tested on: normal human airway epithelial cells (NHAECs); assay: Growth assay (Cell Titer Glo); type: cell-based
Description: as §3, §4

[18] = tested on: H1299 cells; assay: Growth assay (Cell Titer Glo); type: cell-based, human; conditions: Homo sapiens, NCI-H1299; H1299, 72 hours, 5% serum; read-out: Growth inhibition IC50
Description: as §3, §4

[19] = tested on: HOP62 cells; assay: Growth assay (Cell Titer Glo); type: cell-based, human
Description: as §3, §4

[20] = tested on: human lung tumor cells; assay: Growth assay (Cell Titer Glo), lung tumor cell panel; type: cell-based
Description: as §3, §4

[21] = tested on: HOP62 PDE10 knockdown cells (shPDE10); assay: Colony formation assay; type: cell-based, human
Description: (§5) The transient knockdown of PDE10 in NSCLC cells by PDE10-specific siRNA and scramble siRNA control was performed using RNAiMAX reagent (Invitrogen) as previously described. Effects of siRNA on NSCLC cell growth and PDE10 expression levels were measured after 72 hours of treatment. For a stable knockdown of PDE10, GIPZ lentiviral short hairpin RNA (shRNA) vectors targeting human PDE10, nonsilencing GPIZ lentiviral control vector, and transduction kit were purchased from Open Biosystems. Lentiviral particles of shRNA were produced in HEK293T cells (ATCC) according to the manufacturer’s instructions. HOP62 NSCLC cells were transfected by the lentivirus particles followed by puromycin (5 μg/mL) selection. Stable expression cell lines with shRNA of PDE10 (shPDE10) or lentiviral vector control (shCTL) were obtained by limited dilution for single cell clone and confirmed by Western blotting.
(§6) For colony formation assays, 200 viable cells were plated in 6-well tissue culture plates and were cultured in RPMI medium supplemented with 5% serum. DMSO (0.2%) as the vehicle and different concentrations of PQ10 were added to the cell culture medium for 14 days of treatment. Colonies were counted after staining with crystal violet as previously described.

[22] = tested on: HOP62 cells (shCTL vector control); assay: Colony formation assay; type: cell-based, human
Description: as §5, §6

[23] = tested on: intracellular cGMP levels in H1299 cells; assay: cGMP biosensor assay (luciferase); type: cell-based, human; conditions: for pEC50: Homo sapiens, NCI-H1299, H1299 biosensor cells, read-out: EC50 to induce cGMP elevation
Description: (§7) Stable cell lines with an expression of luciferase-based cGMP biosensor were established from H1299 NSCLC cells and HEK293 cells using a genetically encoded GAF-Luc construct (Promega), containing a cGMP-specific binding domain from human PDE5A GAF-A domain fused to modified firefly luciferase (35). Cells were pre-incubated at room temperature in CO2 independent media supplemented with 10% FBS and 5 mmol/L luciferin. For the measurement of intracellular cGMP levels, sodium nitroprusside (SNP) or C-type natriuretic peptide (CNP) in combination with PDE inhibitors were added to initiate the experiment and the increased luminescence values in live cells were detected constantly over a period time of 2 hours.

[24] = tested on: intracellular cGMP levels in HEK293 cells; assay: cGMP biosensor assay (luciferase); type: cell-based, human
Description: as §7

[25] = tested on: PKG activation in H1299 cells; assay: Western blotting, PKG activation (pSer239-VASP); type: cell-based, human
Description: as §1

[26] = tested on: MAPK signaling in H1299 cells; assay: Western blotting, RAF/MAPK signaling; type: cell-based, human
Description: as §1

[27] = tested on: HOP62 PDE10 knockdown cells (shPDE10); assay: Growth assay (Cell Titer Glo); type: cell-based, human; conditions: shPDE10, PQ10 2 µmol/L
Description: as §5
as §3, with “All growth assay involving NSCLCs and NHAECs were performed in the presence of 5% serum.” left out

[28] = substrate cAMP, read-out: IC50 of PQ10 cAMP
[29] = substrate cGMP, read-out: IC50 of PQ10 cGMP

Chain of PDE1A (P54750 whole entry): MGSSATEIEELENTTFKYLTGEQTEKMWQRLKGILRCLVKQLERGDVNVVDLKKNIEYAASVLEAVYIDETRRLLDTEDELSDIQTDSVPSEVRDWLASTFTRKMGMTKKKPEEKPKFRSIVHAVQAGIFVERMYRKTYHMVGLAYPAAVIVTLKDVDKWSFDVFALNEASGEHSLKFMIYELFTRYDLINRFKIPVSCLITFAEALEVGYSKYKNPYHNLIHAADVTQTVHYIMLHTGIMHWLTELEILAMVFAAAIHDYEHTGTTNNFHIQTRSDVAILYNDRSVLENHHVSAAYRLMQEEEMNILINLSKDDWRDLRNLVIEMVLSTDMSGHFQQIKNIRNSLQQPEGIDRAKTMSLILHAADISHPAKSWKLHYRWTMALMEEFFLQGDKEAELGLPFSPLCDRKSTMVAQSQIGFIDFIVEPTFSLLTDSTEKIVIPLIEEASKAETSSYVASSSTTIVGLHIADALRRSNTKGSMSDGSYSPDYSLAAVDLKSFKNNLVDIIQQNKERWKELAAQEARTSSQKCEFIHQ
Chain of PDE11A (Q9HCR9 whole entry): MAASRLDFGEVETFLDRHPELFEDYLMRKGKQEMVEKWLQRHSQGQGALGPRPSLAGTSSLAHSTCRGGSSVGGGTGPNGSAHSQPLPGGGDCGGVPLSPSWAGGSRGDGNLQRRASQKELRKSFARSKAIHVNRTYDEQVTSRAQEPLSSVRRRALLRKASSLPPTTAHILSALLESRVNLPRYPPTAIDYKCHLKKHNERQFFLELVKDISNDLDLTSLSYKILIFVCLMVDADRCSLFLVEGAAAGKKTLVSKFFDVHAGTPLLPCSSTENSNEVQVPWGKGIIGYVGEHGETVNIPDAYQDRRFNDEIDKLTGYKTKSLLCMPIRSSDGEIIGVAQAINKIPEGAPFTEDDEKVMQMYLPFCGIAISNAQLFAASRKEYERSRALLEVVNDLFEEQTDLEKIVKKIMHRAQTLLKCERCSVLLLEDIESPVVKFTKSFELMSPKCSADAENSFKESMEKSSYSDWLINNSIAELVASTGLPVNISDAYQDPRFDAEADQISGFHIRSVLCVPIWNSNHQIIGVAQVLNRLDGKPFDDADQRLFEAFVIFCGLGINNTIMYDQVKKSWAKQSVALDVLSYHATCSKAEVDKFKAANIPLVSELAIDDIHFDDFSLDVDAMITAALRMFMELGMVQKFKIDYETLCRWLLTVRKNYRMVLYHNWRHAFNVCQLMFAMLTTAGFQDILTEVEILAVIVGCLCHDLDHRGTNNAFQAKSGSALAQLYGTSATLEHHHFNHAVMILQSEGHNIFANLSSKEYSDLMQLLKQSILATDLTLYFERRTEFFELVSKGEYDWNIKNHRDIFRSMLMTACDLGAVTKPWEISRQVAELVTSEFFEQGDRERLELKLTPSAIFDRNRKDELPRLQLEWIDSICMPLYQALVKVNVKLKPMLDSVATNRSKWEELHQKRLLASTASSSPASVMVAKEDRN
Chain of PDE3A (Q14432 whole entry): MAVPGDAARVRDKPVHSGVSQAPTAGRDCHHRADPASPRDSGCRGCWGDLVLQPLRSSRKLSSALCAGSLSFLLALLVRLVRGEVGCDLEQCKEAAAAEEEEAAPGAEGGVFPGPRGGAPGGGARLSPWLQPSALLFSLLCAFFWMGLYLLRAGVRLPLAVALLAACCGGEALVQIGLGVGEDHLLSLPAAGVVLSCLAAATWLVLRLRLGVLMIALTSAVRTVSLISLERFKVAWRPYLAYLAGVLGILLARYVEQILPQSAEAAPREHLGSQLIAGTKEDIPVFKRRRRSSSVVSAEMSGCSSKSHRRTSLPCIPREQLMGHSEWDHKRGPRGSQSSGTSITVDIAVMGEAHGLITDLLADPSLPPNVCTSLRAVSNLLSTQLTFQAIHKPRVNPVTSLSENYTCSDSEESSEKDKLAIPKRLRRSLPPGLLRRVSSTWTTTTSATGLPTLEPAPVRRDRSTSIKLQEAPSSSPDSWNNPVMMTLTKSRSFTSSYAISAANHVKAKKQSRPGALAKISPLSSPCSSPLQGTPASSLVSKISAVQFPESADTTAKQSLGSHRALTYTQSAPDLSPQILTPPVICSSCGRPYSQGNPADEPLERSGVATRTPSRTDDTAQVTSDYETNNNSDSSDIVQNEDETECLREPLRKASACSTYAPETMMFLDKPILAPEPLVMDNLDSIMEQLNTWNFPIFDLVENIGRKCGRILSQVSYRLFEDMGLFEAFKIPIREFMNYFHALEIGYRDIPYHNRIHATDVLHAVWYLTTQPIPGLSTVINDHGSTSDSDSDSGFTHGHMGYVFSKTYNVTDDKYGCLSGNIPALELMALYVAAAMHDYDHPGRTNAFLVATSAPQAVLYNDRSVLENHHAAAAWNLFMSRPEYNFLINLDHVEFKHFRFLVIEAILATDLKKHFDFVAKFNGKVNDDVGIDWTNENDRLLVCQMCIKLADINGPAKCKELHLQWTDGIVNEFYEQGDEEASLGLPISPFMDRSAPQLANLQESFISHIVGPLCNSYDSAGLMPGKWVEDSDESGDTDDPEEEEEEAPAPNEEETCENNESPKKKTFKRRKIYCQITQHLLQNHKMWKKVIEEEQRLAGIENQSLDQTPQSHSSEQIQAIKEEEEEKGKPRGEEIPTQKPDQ
Chain of PDE10A (Q9Y233 718-1035 limits assumed): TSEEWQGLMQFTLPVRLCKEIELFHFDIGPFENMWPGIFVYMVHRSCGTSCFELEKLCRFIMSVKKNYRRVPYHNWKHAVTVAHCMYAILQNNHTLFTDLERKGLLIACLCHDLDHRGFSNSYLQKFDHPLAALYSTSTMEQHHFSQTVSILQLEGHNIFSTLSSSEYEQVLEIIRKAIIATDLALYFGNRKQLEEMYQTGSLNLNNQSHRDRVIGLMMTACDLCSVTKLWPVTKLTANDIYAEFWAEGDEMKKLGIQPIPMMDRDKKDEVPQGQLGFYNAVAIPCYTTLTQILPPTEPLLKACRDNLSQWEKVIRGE
Chain of PDE2A (O00408 whole entry): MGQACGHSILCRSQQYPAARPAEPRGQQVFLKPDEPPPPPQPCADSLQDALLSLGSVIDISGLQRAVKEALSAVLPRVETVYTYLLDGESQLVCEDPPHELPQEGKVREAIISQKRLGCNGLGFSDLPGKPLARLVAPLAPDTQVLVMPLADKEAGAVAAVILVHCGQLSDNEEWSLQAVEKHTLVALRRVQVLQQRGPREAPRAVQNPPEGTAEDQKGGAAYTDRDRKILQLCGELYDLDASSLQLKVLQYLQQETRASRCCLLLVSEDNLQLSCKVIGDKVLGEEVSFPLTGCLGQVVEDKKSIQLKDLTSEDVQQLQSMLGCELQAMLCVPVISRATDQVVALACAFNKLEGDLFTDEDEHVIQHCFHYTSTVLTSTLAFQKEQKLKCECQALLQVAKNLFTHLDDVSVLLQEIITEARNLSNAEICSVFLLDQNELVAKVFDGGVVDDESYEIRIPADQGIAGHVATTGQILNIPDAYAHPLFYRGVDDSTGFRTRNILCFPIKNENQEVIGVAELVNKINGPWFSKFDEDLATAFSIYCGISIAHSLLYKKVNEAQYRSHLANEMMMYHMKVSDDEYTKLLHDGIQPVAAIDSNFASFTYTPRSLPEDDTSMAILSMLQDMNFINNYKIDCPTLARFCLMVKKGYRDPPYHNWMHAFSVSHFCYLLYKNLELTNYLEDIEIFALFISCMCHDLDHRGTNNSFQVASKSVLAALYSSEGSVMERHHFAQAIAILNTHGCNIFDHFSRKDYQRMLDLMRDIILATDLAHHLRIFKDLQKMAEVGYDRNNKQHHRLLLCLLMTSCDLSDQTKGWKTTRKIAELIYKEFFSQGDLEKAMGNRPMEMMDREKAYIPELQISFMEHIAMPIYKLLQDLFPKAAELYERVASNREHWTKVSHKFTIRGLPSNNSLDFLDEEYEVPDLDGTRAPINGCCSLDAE
Chain of PDE4B (Q07343 whole entry): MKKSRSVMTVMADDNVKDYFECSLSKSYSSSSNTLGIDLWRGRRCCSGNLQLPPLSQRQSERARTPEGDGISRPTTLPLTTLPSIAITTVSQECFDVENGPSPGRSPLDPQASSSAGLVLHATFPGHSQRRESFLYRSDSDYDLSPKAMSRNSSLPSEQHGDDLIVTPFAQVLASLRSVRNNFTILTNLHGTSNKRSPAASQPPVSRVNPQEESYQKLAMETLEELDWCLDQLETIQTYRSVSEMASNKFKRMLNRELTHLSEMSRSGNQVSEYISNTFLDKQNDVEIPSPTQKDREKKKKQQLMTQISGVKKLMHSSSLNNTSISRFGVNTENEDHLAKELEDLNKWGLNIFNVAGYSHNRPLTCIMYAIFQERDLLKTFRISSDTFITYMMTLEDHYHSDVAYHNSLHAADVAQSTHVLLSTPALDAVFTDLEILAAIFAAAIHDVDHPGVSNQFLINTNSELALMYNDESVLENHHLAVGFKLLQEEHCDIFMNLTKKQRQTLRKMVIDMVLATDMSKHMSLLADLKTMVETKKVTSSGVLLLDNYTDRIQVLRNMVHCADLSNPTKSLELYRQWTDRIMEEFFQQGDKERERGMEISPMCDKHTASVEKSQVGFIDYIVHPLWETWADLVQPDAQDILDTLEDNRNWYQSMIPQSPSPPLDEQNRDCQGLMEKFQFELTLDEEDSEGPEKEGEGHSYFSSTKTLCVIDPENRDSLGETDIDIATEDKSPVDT

SMILES: O=S(=O)(NCCNC/C=C/c1ccc(Br)cc1)c1cccc2cnccc12 [H89]
- effect on PQ10-induced phosphorylation of β-catenin at pSer552 ([1]; H1299, PQ10 2 µmol/L, 1 hour, KT5823 0.1 µmol/L, H89 1 µmol/L): partial inhibition
- effect on PQ10-induced activation of PARP and caspase 3 ([2]; H1299, 24 hours of treatment): ineffective

SMILES: COc1cc2ncnc(N3CC[C@@H](Oc4cnc5ccccc5n4)C3)c2cc1OC [PQ10]
- IC50 of PQ10 cGMP [3]: Inactive
- IC50 of PQ10 cAMP [4]: Inactive
- IC50 of PQ10 cAMP [5]: Inactive
- IC50 of PQ10 cGMP [6]: Inactive
- pIC50 [7, 28]: 7.89
- pIC50 [7, 29]: 8.30
- pIC50 [8, 28]: 4.52
- pIC50 [8, 29]: 4.88
- pIC50 [9, 28]: 4.53
- pIC50 [9, 29]: 5.06
- pIC50 [10, 28]: 5.15
- pIC50 [10, 29]: 5.43
- pIC50 [11, 28]: 6.33
- pIC50 [11, 29]: 6.49
- pIC50 [12]: 4.75
- pIC50 [13]: 5.74
- pIC50 [14]: 6.27
- pIC50 [15]: 5.90
- pIC50 [16]: 6.49
- pIC50 ([17]; Homo sapiens, Epithelial cell, NHAEC, 72 hours, 5% serum, read-out: Growth inhibition IC50): 4.76
- fold less sensitive to PQ10 treatment (NHAECs vs lung tumor cells) ([17]; growth assays under identical conditions): ≤ 50 fold
- pIC50 [18]: 5.77
- pIC50 ([19]; Homo sapiens, HOP-62, HOP62, 72 hours, 5% serum, read-out: Growth inhibition IC50): 6.00
- growth of vector control HOP62 cells ([19]; shCTL, PQ10 2 µmol/L): effectively inhibited
- maximum reduction of viable cell number ([20]; 3 days of treatment): greater than 75%
- pIC50 ([20]; Homo sapiens, 72 h, read-out: Growth inhibition IC50 values, range over human lung tumor cells): 5.77 to 6.49
- reduction of colony formation ([21]; 0.1 µmol/L, PDE10 knockdown HOP62 cells): 12.3%
- pIC50 ([21]; Homo sapiens, HOP-62, 336 h, HOP62 shPDE10, 14 days of treatment): 6.76
- reduction of colony formation ([22]; 0.1 µmol/L, HOP62 vector control cells): 54.4%
- pIC50 ([22]; Homo sapiens, HOP-62, 336 h, HOP62 shCTL, 14 days of treatment): 7.01
- time to increase in cGMP levels ([23]; H1299 biosensor cells, sustained to 2 hours): ≤ 1 h
- pEC50 ([23]; CNP (100 nmol/L) stimulation): 5.88
- pEC50 ([23]; SNP (100 µmol/L) stimulation): 5.76
- pEC50 ([24]; Homo sapiens, HEK293 biosensor cells, SNP (100 µmol/L) stimulation, read-out: EC50 to induce cGMP elevation): 5.25
- EC50 fold higher in HEK293 than in H1299 biosensor cells ([24]; SNP (100 µmol/L)): about 3.3 fold
- time to increase in pSer239-VASP levels [25]: ≤ 30 minutes
- phosphorylation level of β-catenin at pSer675 ([1]; H1299 cells): no change
- phosphorylation of β-catenin at pSer552 ([1]; H1299 cells, concentration-dependent, 0.5-1 hour): increased the phosphorylation
- lowest concentration increasing cleaved PARP and caspase 3 ([2]; H1299 cells, 24 hours of treatment): 0.1 µmol/L
- concentration of maximum effect on cleaved PARP and caspase 3 ([2]; H1299 cells, 48 hours of treatment): 5 µmol/L
- MAPK signaling, ERK1/2 (p42/44) phosphorylation at T202/Y204 [26]: concentration- and time-dependent inhibition
- phosphorylation of c-RAF at serine 338 and serine 259 [26]: did not affect
- sensitivity of PDE10 knockdown HOP62 cells in growth assay [27]: appreciably less sensitive

SMILES: COc1ccc(Cc2nccc3cc(OC)c(OC)cc23)cc1OC [Papaverine]
- pIC50 [14]: 4.76
- pIC50 [16]: 4.79
